From patent US7026327B2, “Pyrimidine derivatives useful as selective COX-2 inhibitors” (Glaxo Group Limited, priority 2001, dated 2006) come the findings set out here.

pIC50: −log10 of the molar value. Read-outs that look alike come from different tables or passages of the source. A value given as a limit tells only on which side of the number the result lay.

Assay [1] has as its target T1, COX-1 (Homo sapiens, UniProt P23219). In words: Cell based assay, COS cells stably transfected with human COX-1, PGE2 release. Also noted: expressed in transfected cells; host or cells: COS cells, stably transfected. The method, then: (§1) Inhibitory activity against human COX-1 and COX-2 was assessed in COS cells which had been stably transfected with cDNA for human COX-1 and human COX-2. 24 Hours prior to experiment, COS cells were transferred from the 175 cm^2 flasks in which they were grown, onto 24-well cell culture plates using the following procedure. The incubation medium (Dulbecco's modified eagles medium (DMEM) supplemented with heat-inactivated foetal calf serum (10% v/v), penicillin (100 IU/ml), streptomycin (100 μg/ml) and geneticin (600 μg/ml)) was removed from a flask of confluent cells (1 flask at confluency contains approximately 1×10^7 cells). 5 ml of phosphate buffered saline (PBS) was added to the flask to wash the cells. Having discarded the PBS, cells were then incubated with 5 ml trypsin for 5 minutes in an incubator (37°). The flask was then removed from the incubator and 5 ml of fresh incubation medium was added. The contents of the flask was transferred to a 250 ml sterile container and the volume of incubation medium subsequently made up to 100ml. 1 ml cell suspension was pipetted into each well of 4×24-well cell culture plates. The plates were then placed in an incubator (37° C., 95% air/5% CO2) overnight. If more than 1 flask of cells were required, the cells from the individual flasks were combined before being dispensed into the 24-well plates.
(§2) Following the overnight incubation, the incubation medium was completely removed from the 24-well cell culture plates and replaced with 250 μl fresh DMEM (37° C.). The test compounds were made up to 250× the required test concentration in DMSO and were added to the wells in a volume of 1 μl. Plates were then mixed gently by swirling and then placed in an incubator for 1 hour (37° C., 95% air/5% CO2). Following the incubation period, 10 μl of arachidonic acid (750 μM) was added to each well to give a final arachidonic acid concentration of 30 μM. Plates were then incubated for a further 10 minutes, after which the incubation medium was removed from each well of the plates and stored at −20° C., prior to determination of prostaglandin E2 (PGE2) levels using enzyme immunoassay. […] The selectivity ratio of inhibition of COX-1 versus COX-2 was calculated by comparing respective IC50 values.

Assay [2] addresses T2, human COX-2 (Homo sapiens, UniProt P35354).
T2 construct: expressed in transfected cells; host or cells: COS cells, stably transfected
T2 sequence (P35354 18-604): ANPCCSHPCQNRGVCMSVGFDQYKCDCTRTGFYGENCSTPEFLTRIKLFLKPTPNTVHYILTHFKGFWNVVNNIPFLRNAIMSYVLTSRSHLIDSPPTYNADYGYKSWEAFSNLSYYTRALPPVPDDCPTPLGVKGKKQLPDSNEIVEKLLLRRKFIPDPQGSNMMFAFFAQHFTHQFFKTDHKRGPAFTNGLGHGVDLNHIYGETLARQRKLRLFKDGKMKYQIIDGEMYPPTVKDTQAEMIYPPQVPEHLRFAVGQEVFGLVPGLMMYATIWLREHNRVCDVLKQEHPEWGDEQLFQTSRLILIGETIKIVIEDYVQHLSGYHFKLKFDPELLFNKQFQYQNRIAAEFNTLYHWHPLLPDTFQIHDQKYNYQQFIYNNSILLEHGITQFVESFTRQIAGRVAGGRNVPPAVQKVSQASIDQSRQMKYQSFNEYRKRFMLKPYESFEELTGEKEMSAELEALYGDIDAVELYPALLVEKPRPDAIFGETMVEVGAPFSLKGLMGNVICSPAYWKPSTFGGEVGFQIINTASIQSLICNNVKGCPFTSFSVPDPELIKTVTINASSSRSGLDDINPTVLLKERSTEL
In words: Cell based assay, COS cells stably transfected with human COX-2, PGE2 release. The method, then: as §1, §2

Assay [3] deals with T1, COX-1. The experiment in a line: Microsomal assay, COX-1. Format: biochemical.
The target of assay [4] is T3, microsomal h-COX2 (Homo sapiens, UniProt P35354).
T3 construct: made in house; host or cells: baculovirus infected SF9 cells (microsomal preparation)
T3 sequence (P35354 18-604): T2 sequence (P35354 18-604)
In words: Microsomal assay, h-COX2 microsomal preparation from baculovirus infected SF9 cells. Format: biochemical. The method, then:
Inhibitory activity against microsomal h-COX2 was assessed against a microsomal preparation from baculovirus infected SF9 cells. An aliquot of microsomal preparation was thawed slowly on ice and a 1/40,000 dilution prepared from it into the assay buffer (sterile water, degassed with argon containing 100 mM HEPES (pH 7.4), 10 mM EDTA (pH7.4), 1 mM phenol, 1 mM reduced glutathione, 20 mg/ml gelatin and 0.001 mM Hematin). Once diluted the enzyme solution was then sonicated for 5 seconds (Branson sonicator, setting 4, 1 cm tip) to ensure a homogeneous suspension. 155 μl enzyme solution was then added to each well of a 96-well microtitre plate containing either 5 μl test compound (40× required test concentration) or 5 μl DMSO for controls. Plates were then mixed and incubated at room temperature for 1 hour. Following the incubation period, 40 μl of 0.5 μM arachidonic acid was added to each well to give a final concentration of 0.1 μM. Plates were then mixed and incubated for exactly 10 minutes (room temperature) prior to addition of […] HCl (hydrochloric acid) to each well to stop the reaction. 25 μl of 1 M NaOH (sodium hydroxide) was then added to each well to neutralise the solution prior to determination of PGE2 levels by enzyme immunoassay (EIA).

Where [5] appears, read: microsomal assay, PGE2 by EIA, 0.1 μM arachidonic acid, read-out: COX-2: IC50.

T1 sequence (P23219 24-599): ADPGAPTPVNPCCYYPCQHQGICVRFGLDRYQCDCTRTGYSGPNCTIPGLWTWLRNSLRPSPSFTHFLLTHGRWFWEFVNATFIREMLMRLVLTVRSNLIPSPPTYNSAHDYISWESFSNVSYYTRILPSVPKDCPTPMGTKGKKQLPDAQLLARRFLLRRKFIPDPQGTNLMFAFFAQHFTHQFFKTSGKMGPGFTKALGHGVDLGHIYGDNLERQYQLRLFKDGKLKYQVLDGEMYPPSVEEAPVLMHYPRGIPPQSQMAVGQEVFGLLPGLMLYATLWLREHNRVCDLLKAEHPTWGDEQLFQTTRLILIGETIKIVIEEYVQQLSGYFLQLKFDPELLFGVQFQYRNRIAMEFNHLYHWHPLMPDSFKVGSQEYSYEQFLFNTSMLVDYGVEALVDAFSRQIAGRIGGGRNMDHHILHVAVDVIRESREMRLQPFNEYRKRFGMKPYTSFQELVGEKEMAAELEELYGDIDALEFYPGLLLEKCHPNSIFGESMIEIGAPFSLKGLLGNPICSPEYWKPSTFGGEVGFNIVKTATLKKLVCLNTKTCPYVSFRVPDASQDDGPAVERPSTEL

With `COc1ccc(Oc2nc(-c3ccc(S(C)(=O)=O)cc3)cc(C(F)(F)F)n2)cc1` [Example 3], the pIC50 was 5.53 in assay [1] and 8.40 in assay [2]. The like results for `CS(=O)(=O)c1ccc(-c2cc(C(F)(F)F)nc(Oc3ccc(Br)cc3)n2)cc1` [Example 5] were, in that order, 4.21 and 8.22.

In the case of `Cc1ccc(Oc2nc(-c3ccc(S(C)(=O)=O)cc3)cc(C(F)(F)F)n2)cc1` [Example 6], the pIC50 in assay [3] was 5.43; in assay [4] (setting [5]), over 8.00. In the case of `CCCCOc1nc(-c2ccc(S(C)(=O)=O)cc2)cc(C(F)(F)F)n1` [Example 10, 2-Butoxy-4-[4-(methylsulfonyl)phenyl]-6-(trifluoromethyl)pyrimidine], the pIC50 in assay [4] (setting [5]) was 7.66. Take `CS(=O)(=O)c1ccc(-c2cc(C(F)(F)F)nc(Oc3ccc(F)cc3)n2)cc1` [Example 1, 2-(4-Fluorophenoxy)-4-[4-(methylsulfonyl)phenyl]-6-(trifluoromethyl)pyrimidine]: the pIC50 is 4.09 in assay [1] and over 9.00 in assay [2]. On to `CS(=O)(=O)c1ccc(-c2cc(C(F)(F)F)nc(Oc3cncc(Cl)c3)n2)cc1` [Example 7, 2-[(5-chloropyridin-3-yl)oxy]-4-[4-(methylsulfony)phenyl]-6-(trifluoromethyl)pyrimidine], for which the pIC50 was 4.10 in assay [3] and over 8.00 in assay [4] (setting [5]). Take `CS(=O)(=O)c1ccc(-c2cc(C(F)(F)F)nc(OC3CCCCC3)n2)cc1` [Example 8, 2-(cyclohexyloxy)-4-[4-(methylsulfonyl)phenyl]-6-(trifluoromethyl)pyrimidine]: the pIC50 in assay [3] was 5.73. `CS(=O)(=O)c1ccc(-c2cc(C(F)(F)F)nc(OCC3CCCC3)n2)cc1` [Example 9] gave a pIC50 in assay [4] of 7.66.

As to `CS(=O)(=O)c1ccc(-c2cc(C(F)(F)F)nc(Oc3ccc(F)c(F)c3)n2)cc1` [Example 2], the values for the pIC50 in assay [1] and in assay [2] were 5.01 and 7.64, respectively.
